Measurements: patent US20050256073A1, “Immunostimulatory viral RNA oligonucleotides” (Coley Pharmaceutical Group, Inc., priority 2004, published 2005)
Values joined by “and” are separate entries in the source; they are usually repeats but may differ in a detail not shown here. Identical values can stand only once. Like-named read-outs stand apart in the source and are kept apart here.

Tests used:
Format in all cases: cell-based
human PBMC [1] = conditions: for EC50: read-out: TNF production EC50
human PBMC [2] = conditions: for EC50: read-out: IFN-γ production EC50
human PBMC [3] = conditions: for EC50: read-out: IFN-α production EC50
[4] = test system: human CD19+ cells (B cells); assay: CD80 expression on human CD19+ cells (FACS)
human CD14+ cells = assay: CD80 expression on human CD14+ cells (FACS)
human PBMC [5] = test system: human PBMC
human TLR8 = biological target: T1, human TLR8 (Homo sapiens, UniProt Q9NR97); assay: NF-κB-luciferase readout in HEK293 cells stably transfected with human TLR8
T1 construct: expressed in transfected cells; host or cells: HEK293 cells, stably transfected, with NF-κB-luciferase reporter construct
T1 sequence (Q9NR97 27-1041): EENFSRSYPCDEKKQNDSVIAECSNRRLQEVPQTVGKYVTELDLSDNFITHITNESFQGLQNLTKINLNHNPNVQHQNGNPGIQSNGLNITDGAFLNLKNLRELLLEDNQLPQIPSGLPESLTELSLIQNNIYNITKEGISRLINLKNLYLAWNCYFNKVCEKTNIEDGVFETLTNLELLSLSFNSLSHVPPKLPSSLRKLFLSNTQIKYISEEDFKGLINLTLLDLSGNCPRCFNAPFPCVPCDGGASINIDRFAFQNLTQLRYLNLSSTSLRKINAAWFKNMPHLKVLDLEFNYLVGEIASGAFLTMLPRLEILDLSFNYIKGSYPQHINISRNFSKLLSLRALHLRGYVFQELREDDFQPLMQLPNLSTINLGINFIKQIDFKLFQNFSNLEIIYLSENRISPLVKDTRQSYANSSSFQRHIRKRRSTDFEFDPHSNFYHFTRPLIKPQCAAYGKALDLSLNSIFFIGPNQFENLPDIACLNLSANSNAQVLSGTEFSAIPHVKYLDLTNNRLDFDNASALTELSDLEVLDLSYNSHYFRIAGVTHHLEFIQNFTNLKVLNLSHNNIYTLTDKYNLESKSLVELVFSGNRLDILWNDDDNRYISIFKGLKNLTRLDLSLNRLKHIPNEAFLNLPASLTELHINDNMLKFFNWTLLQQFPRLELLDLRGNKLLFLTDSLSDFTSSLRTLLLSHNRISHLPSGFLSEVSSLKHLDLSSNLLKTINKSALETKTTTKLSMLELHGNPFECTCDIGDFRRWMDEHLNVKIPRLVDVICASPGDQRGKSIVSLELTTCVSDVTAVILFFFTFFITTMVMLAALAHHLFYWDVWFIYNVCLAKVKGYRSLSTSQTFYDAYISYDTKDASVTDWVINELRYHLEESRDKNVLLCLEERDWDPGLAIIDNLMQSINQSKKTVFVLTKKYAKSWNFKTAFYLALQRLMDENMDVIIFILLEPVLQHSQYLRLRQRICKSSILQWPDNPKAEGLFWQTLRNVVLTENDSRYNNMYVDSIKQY
Description: (§1) Emitted light varied in direct proportion to NF-κB activation.
(§2) The effect of immunostimulatory oligonucleotide was assessed by titrating the amount or concentration of oligonucleotide concentration in a given experiment. The effect of immunostimulatory oligonucleotide concentration was expressed in terms of EC50 (concentration at which immunostimulatory oligonucleotide was 50 percent effective compared to maximum effect). The potency of a given immunostimulatory oligonucleotide was expressed as maximum stimulation index (SI max; the maximum fold increase in signal over that of untreated control) or maximum activity.
(§3) Stimulation and measurement of signal transduction in HEK293 cells stably transfected with either human TLR8 or human TLR9 and an NF-κB-luciferase reporter construct was performed essentially as described in Example 1. […] Results are expressed in terms of EC50 in μM and stimulation index (SI)=fold induction of NF-κB-luciferase activity in ligand-pulsed cells.

human TLR9 = biological target: T2, human TLR9 (Homo sapiens, UniProt Q9NR96); assay: NF-κB-luciferase readout in HEK293 cells stably transfected with human TLR9
T2 construct: expressed in transfected cells; host or cells: HEK293 cells, stably transfected, with NF-κB-luciferase reporter construct
T2 sequence (Q9NR96 26-1032): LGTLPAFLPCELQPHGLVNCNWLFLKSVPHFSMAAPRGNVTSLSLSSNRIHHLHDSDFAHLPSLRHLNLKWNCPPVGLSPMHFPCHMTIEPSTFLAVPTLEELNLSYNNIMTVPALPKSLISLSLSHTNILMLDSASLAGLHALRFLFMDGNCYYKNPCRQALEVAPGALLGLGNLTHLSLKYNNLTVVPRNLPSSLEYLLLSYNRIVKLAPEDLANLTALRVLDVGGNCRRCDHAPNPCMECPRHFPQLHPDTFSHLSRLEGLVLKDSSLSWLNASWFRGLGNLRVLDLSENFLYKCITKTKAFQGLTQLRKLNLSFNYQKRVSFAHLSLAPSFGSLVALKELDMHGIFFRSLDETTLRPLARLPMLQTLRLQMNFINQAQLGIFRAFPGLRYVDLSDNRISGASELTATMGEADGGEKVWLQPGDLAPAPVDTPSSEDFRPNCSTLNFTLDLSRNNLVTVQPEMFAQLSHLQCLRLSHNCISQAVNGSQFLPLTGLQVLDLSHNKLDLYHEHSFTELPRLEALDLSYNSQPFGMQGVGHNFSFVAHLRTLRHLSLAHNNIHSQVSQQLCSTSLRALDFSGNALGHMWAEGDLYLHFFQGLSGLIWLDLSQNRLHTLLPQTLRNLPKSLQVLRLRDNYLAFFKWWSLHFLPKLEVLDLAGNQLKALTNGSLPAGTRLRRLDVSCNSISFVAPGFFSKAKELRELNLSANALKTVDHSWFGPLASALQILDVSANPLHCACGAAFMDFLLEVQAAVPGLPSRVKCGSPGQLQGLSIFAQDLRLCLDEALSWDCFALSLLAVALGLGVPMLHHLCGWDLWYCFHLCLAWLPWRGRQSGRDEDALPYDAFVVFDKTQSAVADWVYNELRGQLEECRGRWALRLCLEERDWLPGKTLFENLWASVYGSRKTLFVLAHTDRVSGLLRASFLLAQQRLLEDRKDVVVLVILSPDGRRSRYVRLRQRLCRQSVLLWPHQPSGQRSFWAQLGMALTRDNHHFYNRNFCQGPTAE
Description: as §1, §2, §3

| Substance | TNF production max activity (human PBMC [1]) | EC50 (human PBMC [1]) | IFN-γ production max activity (human PBMC [2]) | IFN-α production max activity (human PBMC [3]) [pg/mL] | EC50 (human PBMC [3]) | other results |
| --- | --- | --- | --- | --- | --- | --- |
| AAUGGUUUGUUUGUCUUCGU [ORN 7] | 7500 pg/mL and 10000 pg/mL and 7000 pg/mL and 8000 pg/mL and 5000 pg/mL | 357 nM and 325 nM and 544 nM and 468 nM and 424 nM | 50000 pg/mL and 80000 pg/mL and 65000 pg/mL | – | – | EC50 (human PBMC [2]): 490 nM and 642 nM and 566 nM |
| AGCGAAAGCAGGUCAAUUAU [ORN 5, reference compound] | 0 pg/mL | – | 0 pg/mL | 0 | – | – |
| AUAAUUGACCUGCUUUCGCU [ORN 4] | 5750 pg/mL and 8000 pg/mL and 5000 pg/mL | 412 nM and 400 nM and 559 nM and 512 nM and 471 nM | – | – | – | induction of co-stimulatory molecule CD80 on CD19+ cells (B cells) [4]: induce; induction of co-stimulatory molecule CD80 on CD14+ cells (human CD14+ cells): induce; profile of immunostimulation (cytokines induced) (human PBMC [5]): very broad, including induction of TNF-α, IL-6, IL-12 p40, IFN-α, and IFN-γ; EC50 (human PBMC [2]): 637 nM and 490 nM and 564 nM |
| CUUACCCAACUUUGUUUGGU [ORN 2] | 9500 pg/mL and 8000 pg/mL and 13000 pg/mL and 10000 pg/mL and 7000 pg/mL | – | 50000 pg/mL and 40000 pg/mL and 45000 pg/mL | – | 34 nM and 68 nM and 60 nM and 38 nM and 50 nM | EC50 (human PBMC [2]): 514 nM and 529 nM and 522 nM |
| GCCACCGAGCCGAAGGCAAC [ORN 21, reference compound] | 0 pg/mL | – | – | 0 | – | immunostimulatory activity (in words) (human PBMC [5]): no immunostimulatory activity |
| GCCACCGAGCCGAUUGUACC [ORN 22] | 23833 pg/mL | 244 nM | – | 2417 | 1110 nM | – |
| GCCACCGAGCCGAUUUUACC [ORN 23] | 25500 pg/mL | 228 nM | – | 2333 | 41 nM | – |
| GGGGAUGAUGTUGTGGGGGGG [ORN 20] | 0 pg/mL | – | – | 0 | – | – |
| GGGGAUGAUGUUGUGGGGGGG [ORN 19] | 37667 pg/mL | 415 nM | – | 2867 | 129 nM | – |
| TCGTCGTTTTCGGCGCGCGCCG [CpG ODN 2395, reference compound] | – | – | – | – | – | induction of co-stimulatory molecule CD80 on CD19+ cells (B cells) [4]: induce |
| TUGTUGTTTTGTUGTTTTGTUGTT [ORN 16] | 56667 pg/mL | 234 nM | – | 2267 | 1100 nM | – |
| TUGTUGTTTTUGGUGGUUGUUG [ORN 18] | 61667 pg/mL | 200 nM | – | 2617 | 79.5 nM | – |
| UCGUCGUUUUGUCGUUUUGUCGUU [ORN 14] | 53833 pg/mL | 78 nM | – | 2783 | 37.3 nM | – |
| UGUUUUUUCUCUUGUUUGGU [ORN 3] | – | 419 nM and 421 nM and 470 nM and 337 nM and 412 nM | 60000 pg/mL and 70000 pg/mL and 65000 pg/mL | – | – | induction of co-stimulatory molecule CD80 on CD19+ cells (B cells) [4]: induce; induction of co-stimulatory molecule CD80 on CD14+ cells (human CD14+ cells): induce; EC50 (human PBMC [2]): 528 nM and 606 nM and 567 nM |
| UUGAUCUGGUUGUUAAGCGU [ORN 6] | 8750 pg/mL and 10000 pg/mL and 7000 pg/mL and 8000 pg/mL | 462 nM and 409 nM and 604 nM and 498 nM and 493 nM | 60000 pg/mL and 30000 pg/mL and 45000 pg/mL | – | – | EC50 (human PBMC [2]): 635 nM and 586 nM and 611 nM |
| UUGUACGCAUUUUUUCGCGU [ORN 1] | 8500 pg/mL and 8000 pg/mL and 10000 pg/mL | 494 nM and 417 nM and 473 nM and 529 nM and 478 nM | 50000 pg/mL and 60000 pg/mL and 55000 pg/mL | – | – | EC50 (human PBMC [2]): 592 nM and 517 nM and 555 nM |
| UUGUUGUUUUGUUGUUUUGUUGUU [ORN 15] | 60000 pg/mL | 40 nM | – | 2500 | 5 nM | – |
| UUGUUGUUUUUGGUGGUUGUUG [ORN 17] | 70000 pg/mL | 57.5 nM | – | 3000 | 15.2 nM | – |
| dNdNdNdNdNdNUUGUGdNdNdNdNdNdNdN [ORN 31] | 18000 pg/mL | 4890 nM | – | 766.7 | 3870 nM | – |
| dNdNdNdNdNdNUUGUdNdNdNdNdNdNdNdN [ORN 32] | 30000 pg/mL | 7980 nM | – | 666.7 | 4560 nM | – |
| dNdNdNdNdNdNUUGdNdNdNdNdNdNdNdNdN [ORN 33] | 0 pg/mL | – | – | 0 | – | – |
| dNdNdNdNdNdNdNUGdNdNdNdNdNdNdNdNdN [ORN 34] | 0 pg/mL | – | – | 0 | – | – |
| dTdCdGdTdCdGdTdTdT 2′-5′ (GUUGUGU) dAdAdT [ORN 13] | 0 pg/mL | – | 0 pg/mL | – | 15 nM and 25 nM | TLR8 stimulation (in words) (human TLR8): lost; TLR9 stimulation (in words) (human TLR9): maintained; EC50 (human TLR9; Table 11, HEK293, NF-κB-luciferase): 110 nM |
